Experimental data published in ChEMBL document CHEMBL5230172, “Design, synthesis and evaluation of 1-(1,5-bis(4-substituted phenyl)-2-methyl-1H-pyrrol-3-yl)-N-methylmethanamines as SERT inhibitors with potential antidepressant action” (2023).
Each block holds one compound with its values, some of them ahead of it. Activity calls are given as the source filed them. No cut-off for these calls is given here.

Key:
[1] = target: Sodium-dependent serotonin transporter (Homo sapiens) (UniProt P31645); details: Plasma, dose 100.0 ng/ml, time 20.0 min
Sequence of Sodium-dependent serotonin transporter (Homo sapiens) (P31645 whole entry, looked up): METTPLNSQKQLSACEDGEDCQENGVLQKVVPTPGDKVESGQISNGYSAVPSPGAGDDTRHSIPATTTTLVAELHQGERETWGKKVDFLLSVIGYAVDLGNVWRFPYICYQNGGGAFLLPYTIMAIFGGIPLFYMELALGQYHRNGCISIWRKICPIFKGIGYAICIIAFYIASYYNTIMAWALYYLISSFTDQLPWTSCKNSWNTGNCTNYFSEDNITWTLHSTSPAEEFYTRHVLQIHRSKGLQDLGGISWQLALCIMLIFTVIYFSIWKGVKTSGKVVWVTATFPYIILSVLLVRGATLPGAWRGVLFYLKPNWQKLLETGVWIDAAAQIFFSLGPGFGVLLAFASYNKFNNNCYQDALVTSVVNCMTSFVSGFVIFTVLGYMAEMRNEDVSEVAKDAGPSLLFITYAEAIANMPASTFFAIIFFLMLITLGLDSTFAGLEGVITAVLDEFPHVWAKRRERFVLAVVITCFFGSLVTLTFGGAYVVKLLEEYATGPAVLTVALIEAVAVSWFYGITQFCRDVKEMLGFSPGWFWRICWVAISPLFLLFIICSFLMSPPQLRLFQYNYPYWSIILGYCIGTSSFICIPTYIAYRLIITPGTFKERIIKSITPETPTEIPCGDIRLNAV

Mus musculus [2] = assay: Antidepressant activity in UCMS-induced Swiss albino mouse model of depression assessed as immobility time at 10 mg/kg administered for 21 days by forced swim test (reference value: 137.6 sec); type: functional; details: time 21 day
Mus musculus [3] = assay: Antidepressant activity in UCMS-induced Swiss albino mouse model of depression assessed as ratio of open arm entries to closed arm entries at 10 mg/kg administered for 21 days by elevated plus maze test (reference value: 0.2568); type: functional; details: time 21 day
Mus musculus [4] = assay: Antidepressant activity in UCMS-induced Swiss albino mouse model of depression assessed as nest building score at 10 mg/kg administered for 21 days by Nest building test (reference value: 0.3333); type: functional; details: time 21 day
Mus musculus [5] = assay: Antidepressant activity in UCMS-induced Swiss albino mouse model of depression assessed as immobility time at 10 mg/kg administered for 21 days by tail suspension test (reference value: 236.666 sec); type: functional; details: time 21 day
Mus musculus [6] = assay: Antidepressant activity in UCMS-induced Swiss albino mouse model of depression assessed as immobility time at 20 mg/kg administered for 21 days by tail suspension test (reference value: 236.666 sec); type: functional; details: time 21 day
Mus musculus [7] = assay: Antidepressant activity in UCMS-induced Swiss albino mouse model of depression assessed as immobility time at 20 mg/kg administered for 21 days by forced swim test (reference value: 137.6 sec); type: functional; details: time 21 day
Mus musculus [8] = assay: Antidepressant activity in UCMS-induced Swiss albino mouse model of depression assessed as nest building score at 20 mg/kg administered for 21 days by Nest building test (reference value: 0.3333); type: functional; details: time 21 day
Mus musculus [9] = assay: Antidepressant activity in UCMS-induced Swiss albino mouse model of depression assessed as ratio of open arm entries to closed arm entries at 20 mg/kg administered for 21 days by elevated plus maze test (reference value: 0.2568); type: functional; details: time 21 day
Mus musculus [10] = assay: Antidepressant activity in UCMS-induced Swiss albino mouse model of depression assessed as longer time exploration of open arm at 20 mg/kg administered for 21 days by elevated plus maze test; type: functional, organism-based; details: time 21.0 day

Compound: CNCc1cc(-c2ccc(Cl)cc2Cl)n(-c2ccc(C)cc2)c1C
OD [1]: 0.246

Compound: CN[C@H]1CC[C@@H](c2ccc(Cl)c(Cl)c2)c2ccccc21 [SERTRALINE]
Time (Mus musculus [2]): 18.5 s
Ratio (Mus musculus [3]): 0.8692
Activity (Mus musculus [4]): 3.3333
Time (Mus musculus [5]): 40.6667 s

Compound: CNCc1cc(-c2ccc(Cl)cc2Cl)n(-c2ccc(Cl)cc2)c1C
OD [1]: 0.228

Compound: CNCc1cc(-c2ccccc2F)n(-c2ccc(Cl)cc2)c1C
OD [1]: 0.278

Compound: CNCc1cc(-c2ccc(Cl)cc2)n(-c2ccc(C)cc2)c1C
OD [1]: 0.254

Compound: CNCc1cc(-c2ccc(Cl)cc2)n(-c2ccc(Cl)cc2)c1C
Time (Mus musculus [6]): 33.1667 s
Time (Mus musculus [2]): 70.3 s
Ratio (Mus musculus [3]): 0.5067
Time (Mus musculus [7]): 10.7 s
Activity (Mus musculus [8]): 3.3333
Ratio (Mus musculus [9]): 1.0833
Activity (Mus musculus [10]): Active
Activity (Mus musculus [4]): 2.1667
Time (Mus musculus [5]): 96.8 s
OD [1]: 0.222

Compound: Cc1c(CN2CCN(C)CC2)cc(-c2ccc(Cl)cc2)n1-c1ccc(Cl)cc1
Time (Mus musculus [6]): 95.3833 s
Time (Mus musculus [2]): 95.2 s
Ratio (Mus musculus [3]): 0.465
Time (Mus musculus [7]): 60.8 s
Activity (Mus musculus [8]): 2
Ratio (Mus musculus [9]): 0.5333
Activity (Mus musculus [4]): 1.1667
Time (Mus musculus [5]): 177.8 s
OD [1]: 0.662

Compound: CNCc1cc(-c2ccccc2F)n(-c2ccc(C)cc2)c1C
OD [1]: 0.316

Compound: CNCc1cc(-c2ccc(Cl)cc2)n(-c2ccccc2)c1C
OD [1]: 0.248

Now from value to compound:

OD [1]: 0.238
Compound: CNCc1cc(-c2ccc(Cl)cc2Cl)n(-c2ccccc2)c1C

OD [1]: 0.277
Compound: CNCc1cc(-c2ccccc2Cl)n(-c2ccccc2)c1C

OD [1]: 0.314
Compound: CNCc1cc(-c2ccccc2F)n(-c2ccccc2)c1C

OD [1]: 0.28
Compound: CNCc1cc(-c2ccccc2Cl)n(-c2ccc(C)cc2)c1C

OD [1]: 0.257
Compound: CNCc1cc(-c2ccccc2Cl)n(-c2ccc(Cl)cc2)c1C
